Test results published in PubChem BioAssay AID2060886 (Molecular Pharmacology Branch, DTP, NCI, 2025).

Tested on: 653999-131-R-J2-PDC complex spheroids, growth inhibition
Assay: Anticancer human tumor 653999-131-R-J2-PDC patient-derived lung adenocarcinoma cell line growth inhibition [RAS]
Details: for IC50: curve of first compound; for viability, T/C: stronger effect = lower value
Source text: RAS pathway inhibitors in Combinations in Complex Spheroids
A high-throughput screen of multi-cell type tumor spheroids was designed to identify active combinations of RAS pathway inhibitors and targeted small molecules. Complex spheroids include a stromal component modeled by human endothelial cells (HUVEC) and fibroblasts modeled by human mesenchymal stem cells (MSCs). The concentration ranges selected for each drug and investigational agent were based upon clinically achievable concentrations if the clinical Cmax of the agent was known.
Compounds. The drugs and investigational agents: abemaciclib (NSC768073), cobimetinib (NSC768068), divarasib (GDC6063, NSC841802), docetaxel (NSC628503), GDC-1971 (RLY-1971, NSC841576), gemcitabine (NSC613327), inavolisib (NSC800729), ipatasertib (NSC767898), KB-0742 (NSC834161), MRTX-1133 (NSC836407), osimertinib (NSC779217), RMC-4630 (NSC839698), RMC-6236 (NSC851965), RMC-6291 (NSC852671), Ro-3306 (NSC812927), sapanisertib (NSC764658), SN-38 (NSC673596), staurosporine (NSC755774), SY5609 (NSC837396), and tovorafenib (DAY101, NSC766906), were obtained from the National Cancer Institute (NCI) Developmental Therapeutics Program Chemical Repository. The FDA-approved anticancer drug set is available from the NCI Developmental Therapeutics Program. […] The stock solutions were prepared in dimethyl sulfoxide (DMSO, Sigma-Aldrich, St. Louis, MO, cat. D2650) at 800-fold the tested concentration and stored at -70 degrees C prior to their use. All drugs and investigational agents were tested over a range starting from a high concentration at or near the clinical Cmax and decreasing in half-log increments. If the clinical Cmax for an agent had not been determined, the highest concentration tested was 10 microM.
Cell Culture. All cells were maintained in an incubator at 37 degrees C and 5% CO2 with 95% humidity. The PDC lines were cultured according to standard operating procedures established by the NCI PDMR. All PDCs were thawed and cultured in Matrigel-coated flasks prepared with a working solution of 1X Ham's F-12 nutrient mix, without supplementation (Invitrogen, Waltham, MA, cat. 11765054), 100 U/mL penicillin-streptomycin (Invitrogen, cat. 15140122), and 2.5% Matrigel (Corning Inc., Corning, NY, cat. 354248) for the first three passages. The 362531-283-R-J2-PDC and 782815-120-R-J1-PDC lines were cultured in 6C/Colon 1B media, which includes advanced DMEM/F-12 (Thermo Fisher Scientific, cat. 12634028), 10 mM HEPES (Thermo Fisher Scientific, cat. 15630080), 1X GlutaMAX supplement (Thermo Fisher Scientific, cat. 35050061), 0.1 mg/mL primocin (InvivoGen, San Diego, CA, cat. ant-pm-2), 10% defined fetal bovine serum, heat inactivated (HyClone Laboratories Inc., Logan, UT, cat. SH30070.03HI), 50% L-WRN conditioned media (ATCC, cat. CRL-3276), 1.25 mM N-Acetyl-L-cysteine (Sigma-Aldrich, cat. A9165), 10 mM nicotinamide (Sigma-Aldrich, cat. N0636), 1X B-27 supplement (Thermo Fisher Scientific, cat. 17504044), 1X N-2 supplement (Thermo Fisher Scientific, cat. 17502048), 50 ng/mL human EGF (Thermo Fisher Scientific, cat. PHG0311), and 10 microM Y-27632 dihydrochloride (Tocris Bioscience, cat. 1254). The K12877-001-R-J1-PDC line was cultured in 6I media, which includes all 6C/Colon 1B media plus 10 ng/mL human FGF-10 (PeproTech, cat. 100-26), 1 ng/mL human FGF-2 (PeproTech, cat. 100-18B), 1 µM prostaglandin E2 (Tocris Bioscience, cat. 2296), […] hydrocortisone (Sigma-Aldrich, cat. H4001), and […] bovine insulin (Sigma-Aldrich, cat. I6634). The K86415-001-R-J1-PDC line was cultured in 6D media, which includes all 6C/Colon 1B media components minus the L-WRN conditioned media. The 485176-168-R4-J1-PDC was cultured in PANC media, which includes all 6C/Colon 1B media plus 100 ng/mL human FGF-10 (PeproTech, cat. 100-26), 500 nM SB-431542 (Selleckchem, cat. S1067), and 10 nM gastrin (Tocris Bioscience, cat. 3006). […]
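Further: spheroids exposed to the agents for seven days before the readout.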

Work on `CC(C)NCC(C(=O)N1CCN(c2ncnc3c2C(C)CC3O)CC1)c1ccc(Cl)cc1` (centres undefined) + C=CC(=O)N1CCN(c2nc(OCC3CCCN3C)nc3c(F)c(-c4nc(N)cc(C)c4C(F)(F)F)c(Cl)cc23)C(C)C1 yielded an IC50 (second compound 0.00316 µM) of 1310 nM, an IC50 (second compound 0.01 µM) of 1960 nM and an IC50 (second compound 0.0316 µM) of 1410 nM. For the same compound, the IC50 (second compound 0.1 µM) was 1540 nM, the IC50 (second compound 0.316 µM) was 1500 nM and the IC50 (second compound 1 µM) was 927 nM. For the same compound, the viability, T/C (second compound 0.00316 µM, first compound 0.0316 µM) was 116%, the viability, T/C (second compound 0.00316 µM, first compound 0.1 µM) was 104% and the viability, T/C (second compound 0.00316 µM, first compound 0.316 µM) was 96.6%. The viability, T/C (second compound 0.00316 µM, first compound 1 µM) was 52%, the viability, T/C (second compound 0.00316 µM, first compound 3.16 µM) was 41.7% and the viability, T/C (second compound 0.00316 µM, first compound 10 µM) was 40.8%. It also gave a viability, T/C (second compound 0.01 µM, first compound 0.0316 µM) of 89.6%, a viability, T/C (second compound 0.01 µM, first compound 0.1 µM) of 100% and a viability, T/C (second compound 0.01 µM, first compound 0.316 µM) of 69.1%. It also gave a viability, T/C (second compound 0.01 µM, first compound 1 µM) of 61.1%, a viability, T/C (second compound 0.01 µM, first compound 3.16 µM) of 44.2% and a viability, T/C (second compound 0.01 µM, first compound 10 µM) of 40.9%. The viability, T/C (second compound 0.0316 µM, first compound 0.0316 µM) was 98.6%, the viability, T/C (second compound 0.0316 µM, first compound 0.1 µM) was 97.3% and the viability, T/C (second compound 0.0316 µM, first compound 0.316 µM) was 73.9%. The viability, T/C (second compound 0.0316 µM, first compound 1 µM) was 54%, the viability, T/C (second compound 0.0316 µM, first compound 3.16 µM) was 43.6% and the viability, T/C (second compound 0.0316 µM, first compound 10 µM) was 35.5%. For the same compound, the viability, T/C (second compound 0.1 µM, first compound 0.0316 µM) was 104%, the viability, T/C (second compound 0.1 µM, first compound 0.1 µM) was 95.1% and the viability, T/C (second compound 0.1 µM, first compound 0.316 µM) was 76.2%. The viability, T/C (second compound 0.1 µM, first compound 1 µM) was 52.9%, the viability, T/C (second compound 0.1 µM, first compound 3.16 µM) was 45.1% and the viability, T/C (second compound 0.1 µM, first compound 10 µM) was 37.7%. For the same compound, the viability, T/C (second compound 0.316 µM, first compound 0.0316 µM) was 90.2%, the viability, T/C (second compound 0.316 µM, first compound 0.1 µM) was 95.9% and the viability, T/C (second compound 0.316 µM, first compound 0.316 µM) was 82.6%. For the same compound, the viability, T/C (second compound 0.316 µM, first compound 1 µM) was 53.8%, the viability, T/C (second compound 0.316 µM, first compound 3.16 µM) was 44.8% and the viability, T/C (second compound 0.316 µM, first compound 10 µM) was 39.6%. The viability, T/C (second compound 1 µM, first compound 0.0316 µM) was 98.9%, the viability, T/C (second compound 1 µM, first compound 0.1 µM) was 87.7% and the viability, T/C (second compound 1 µM, first compound 0.316 µM) was 81.5%. The viability, T/C (second compound 1 µM, first compound 1 µM) was 46.9%, the viability, T/C (second compound 1 µM, first compound 3.16 µM) was 43.5% and the viability, T/C (second compound 1 µM, first compound 10 µM) was 41.1%.
Compound `CC1(C)CCC(Nc2ncc(C(F)(F)F)c(-c3c[nH]c4c(P(C)(C)=O)c(C#N)ccc34)n2)CN1` (centres undefined) + CCn1c(-c2cc(N3CCN(C)CC3)cnc2C(C)OC)c2c3cc(ccc31)-c1csc(n1)CC(NC(=O)C1CC1C)C(=O)N1CCCC(N1)C(=O)OCC(C)(C)C2 has an IC50 (second compound 0.000949 µM) of over 300 nM, an IC50 (second compound 0.003 µM) of under 0.949 nM and an IC50 (second compound 0.00949 µM) of under 0.949 nM. The IC50 (second compound 0.03 µM) was under 0.949 nM, the IC50 (second compound 0.0949 µM) was under 0.949 nM and the IC50 (second compound 0.3 µM) was under 0.949 nM. The viability, T/C (second compound 0.000949 µM, first compound 0.000949 µM) was 60.9%, the viability, T/C (second compound 0.000949 µM, first compound 0.003 µM) was 58.4% and the viability, T/C (second compound 0.000949 µM, first compound 0.00949 µM) was 56.4%. For the same compound, the viability, T/C (second compound 0.000949 µM, first compound 0.03 µM) was 45.1%, the viability, T/C (second compound 0.000949 µM, first compound 0.0949 µM) was 56.4% and the viability, T/C (second compound 0.000949 µM, first compound 0.3 µM) was 61.2%. For the same compound, the viability, T/C (second compound 0.003 µM, first compound 0.000949 µM) was 51%, the viability, T/C (second compound 0.003 µM, first compound 0.003 µM) was 41.6% and the viability, T/C (second compound 0.003 µM, first compound 0.00949 µM) was 40.8%. It also gave a viability, T/C (second compound 0.003 µM, first compound 0.03 µM) of 44.7%, a viability, T/C (second compound 0.003 µM, first compound 0.0949 µM) of 41.1% and a viability, T/C (second compound 0.003 µM, first compound 0.3 µM) of 38.2%. It also gave a viability, T/C (second compound 0.00949 µM, first compound 0.000949 µM) of 35.9%, a viability, T/C (second compound 0.00949 µM, first compound 0.003 µM) of 24.3% and a viability, T/C (second compound 0.00949 µM, first compound 0.00949 µM) of 21.4%. It also gave a viability, T/C (second compound 0.00949 µM, first compound 0.03 µM) of 21.6%, a viability, T/C (second compound 0.00949 µM, first compound 0.0949 µM) of 27.6% and a viability, T/C (second compound 0.00949 µM, first compound 0.3 µM) of 22.3%. The viability, T/C (second compound 0.03 µM, first compound 0.000949 µM) was 17.8%, the viability, T/C (second compound 0.03 µM, first compound 0.003 µM) was 18.3% and the viability, T/C (second compound 0.03 µM, first compound 0.00949 µM) was 17.4%. The viability, T/C (second compound 0.03 µM, first compound 0.03 µM) was 13.4%, the viability, T/C (second compound 0.03 µM, first compound 0.0949 µM) was 15.9% and the viability, T/C (second compound 0.03 µM, first compound 0.3 µM) was 16.5%. For the same compound, the viability, T/C (second compound 0.0949 µM, first compound 0.000949 µM) was 16.4%, the viability, T/C (second compound 0.0949 µM, first compound 0.003 µM) was 17.8% and the viability, T/C (second compound 0.0949 µM, first compound 0.00949 µM) was 14.5%. The viability, T/C (second compound 0.0949 µM, first compound 0.03 µM) was 14.4%, the viability, T/C (second compound 0.0949 µM, first compound 0.0949 µM) was 14.1% and the viability, T/C (second compound 0.0949 µM, first compound 0.3 µM) was 16.3%. It also gave a viability, T/C (second compound 0.3 µM, first compound 0.000949 µM) of 14.5%, a viability, T/C (second compound 0.3 µM, first compound 0.003 µM) of 15.2% and a viability, T/C (second compound 0.3 µM, first compound 0.00949 µM) of 14.7%. It also gave a viability, T/C (second compound 0.3 µM, first compound 0.03 µM) of 14.8%, a viability, T/C (second compound 0.3 µM, first compound 0.0949 µM) of 13.7% and a viability, T/C (second compound 0.3 µM, first compound 0.3 µM) of 15.7%.
